Measurements published in ChEMBL document CHEMBL6078666, “Discovery of Novel Coumarin Pleuromutilin Derivatives as Potent Anti-MRSA Agents” (J Med Chem, 2024).
≈ marks a conversion by molar mass, not a printed value.

Tests used:
Format in all cases: functional
Staphylococcus aureus [1] = assay: Antibacterial activity against methicillin-resistant Staphylococcus aureus ATCC 33591 assessed as bacterial growth inhibition measured after 20 hrs by broth dilution method
Staphylococcus aureus [2] = assay: Antibacterial activity against methicillin-resistant Staphylococcus aureus ATCC 43300 assessed as bacterial growth inhibition measured after 20 hrs by broth dilution method
[3] = tested on: Staphylococcus epidermidis; assay: Antibacterial activity against Staphylococcus epidermidis ATCC 51625 assessed as bacterial growth inhibition measured after 20 hrs by broth dilution method
Enterococcus faecium [4] = assay: Antibacterial activity against vancomycin-resistant Enterococcus faecium ATCC 51559 assessed as bacterial growth inhibition measured after 20 hrs by broth dilution method
Enterococcus faecium [5] = assay: Antibacterial activity against vancomycin-resistant Enterococcus faecium ATCC 700221 assessed as bacterial growth inhibition measured after 20 hrs by broth dilution method
Streptococcus pneumoniae [6] = assay: Antibacterial activity against penicillin-resistant Streptococcus pneumoniae ATCC 51916 assessed as bacterial growth inhibition measured after 20 hrs by broth dilution method
Streptococcus pneumoniae [7] = assay: Antibacterial activity against penicillin-intermediate Streptococcus pneumoniae ATCC 49619 assessed as bacterial growth inhibition measured after 20 hrs by broth dilution method
Staphylococcus aureus [8] = assay: Ratio of MBC to MIC against Staphylococcus aureus ATCC 43300
[9] = tested on: Staphylococcus epidermidis; assay: Ratio of MBC to MIC against Staphylococcus epidermidis ATCC 51625
Enterococcus faecium [10] = assay: Ratio of MBC to MIC against vancomycin-resistant Enterococcus faecium ATCC 51559
Enterococcus faecium [11] = assay: Ratio of MBC to MIC against vancomycin-resistant Enterococcus faecium ATCC 700221
Streptococcus pneumoniae [12] = assay: Ratio of MBC to MIC against penicillin-resistant Streptococcus pneumoniae ATCC 51916
Streptococcus pneumoniae [13] = assay: Ratio of MBC to MIC against penicillin-intermediate Streptococcus pneumoniae ATCC 49619
Staphylococcus aureus [14] = assay: Antibacterial activity against methicillin-resistant Staphylococcus aureus clinical isolate 202311772 assessed as bacterial growth inhibition measured after 20 hrs by broth dilution method
Staphylococcus aureus [15] = assay: Antibacterial activity against methicillin-resistant Staphylococcus aureus clinical isolate 202313160 assessed as bacterial growth inhibition measured after 20 hrs by broth dilution method
Staphylococcus aureus [16] = assay: Antibacterial activity against methicillin-resistant Staphylococcus aureus clinical isolate 202405157 assessed as bacterial growth inhibition measured after 20 hrs by broth dilution method
[17] = tested on: Staphylococcus epidermidis; assay: Antibacterial activity against methicillin-resistant Staphylococcus epidermidis clinical isolate 202409454 assessed as bacterial growth inhibition measured after 20 hrs by broth dilution method
[18] = tested on: Staphylococcus epidermidis; assay: Antibacterial activity against methicillin-resistant Staphylococcus epidermidis clinical isolate 202409139 assessed as bacterial growth inhibition measured after 20 hrs by broth dilution method
Enterococcus faecium [19] = assay: Antibacterial activity against vancomycin-resistant Enterococcus faecium clinical isolate 202308456 assessed as bacterial growth inhibition measured after 20 hrs by broth dilution method
Staphylococcus aureus [20] = assay: Ratio of MBC to MIC against methicillin-resistant Staphylococcus aureus clinical isolate 202311772
[21] = tested on: Staphylococcus epidermidis; assay: Ratio of MBC to MIC against methicillin-resistant Staphylococcus epidermidis clinical isolate 202409454
Enterococcus faecium [22] = assay: Ratio of MBC to MIC against vancomycin-resistant Enterococcus faecium clinical isolate 202308456
Staphylococcus aureus [23] = assay: Ratio of MBC to MIC against methicillin-resistant Staphylococcus aureus clinical isolate 202405157
Staphylococcus aureus [24] = assay: Ratio of MBC to MIC against methicillin-resistant Staphylococcus aureus clinical isolate 202313160
Staphylococcus aureus [25] = assay: Ratio of MBC to MIC against methicillin-resistant Staphylococcus aureus ATCC 33591

| SMILES | MIC (Staphylococcus aureus [1]) | MIC (Staphylococcus aureus [2]) | MIC [3] | MIC (Enterococcus faecium [4]) | MIC (Enterococcus faecium [5]) | MIC (Streptococcus pneumoniae [6]) | MIC (Streptococcus pneumoniae [7]) | Ratio (Staphylococcus aureus [8]) | Ratio [9] | Ratio (Enterococcus faecium [10]) | Ratio (Enterococcus faecium [11]) | Ratio (Streptococcus pneumoniae [13]) | MIC (Staphylococcus aureus [14]) | MIC (Staphylococcus aureus [15]) | MIC (Staphylococcus aureus [16]) | MIC [17] | MIC [18] | MIC (Enterococcus faecium [19]) | Ratio [21] | Ratio (Enterococcus faecium [22]) | other results |
| --- | --- | --- | --- | --- | --- | --- | --- | --- | --- | --- | --- | --- | --- | --- | --- | --- | --- | --- | --- | --- | --- |
| C=C[C@]1(C)C[C@@H](OC(=O)CSc2cc(=O)oc3cc(F)ccc23)[C@]2(C)[C@H](C)CC[C@]3(CCC(=O)[C@H]32)[C@@H](C)[C@@H]1O | 0.031 µg/mL (≈ 0.0557 µM) | 0.063 µg/mL (≈ 0.113 µM) | 0.031 µg/mL (≈ 0.0557 µM) | 0.031 µg/mL (≈ 0.0557 µM) | 0.031 µg/mL (≈ 0.0557 µM) | 0.125 µg/mL (≈ 0.225 µM) | 0.063 µg/mL (≈ 0.113 µM) | 4 | >4 | 1 | 1 | 2 | 0.031 µg/mL (≈ 0.0557 µM) | 0.063 µg/mL (≈ 0.113 µM) | 0.063 µg/mL (≈ 0.113 µM) | 0.063 µg/mL (≈ 0.113 µM) | 0.125 µg/mL (≈ 0.225 µM) | 0.031 µg/mL (≈ 0.0557 µM) | 2 | 1 | Ratio (Streptococcus pneumoniae [12]): 4; Ratio (Staphylococcus aureus [20]): 2 |
| C=C[C@]1(C)C[C@@H](OC(=O)CSc2cc(=O)oc3ccccc23)[C@]2(C)[C@H](C)CC[C@]3(CCC(=O)[C@H]32)[C@@H](C)[C@@H]1O | 0.031 µg/mL (≈ 0.0575 µM) | 0.063 µg/mL (≈ 0.117 µM) | 0.016 µg/mL (≈ 0.0297 µM) | 0.125 µg/mL (≈ 0.232 µM) | 0.031 µg/mL (≈ 0.0575 µM) | 0.125 µg/mL (≈ 0.232 µM) | 0.031 µg/mL (≈ 0.0575 µM) | >4 | >4 | 4 | 1 | >4 | 0.031 µg/mL (≈ 0.0575 µM) | 0.125 µg/mL (≈ 0.232 µM) | 0.125 µg/mL (≈ 0.232 µM) | 0.25 µg/mL (≈ 0.464 µM) | 0.125 µg/mL (≈ 0.232 µM) | 0.125 µg/mL (≈ 0.232 µM) | 2 | >4 | Ratio (Streptococcus pneumoniae [12]): 2; Ratio (Staphylococcus aureus [20]): 2; Ratio (Staphylococcus aureus [23]): 2 |
| C=C[C@]1(C)C[C@@H](OC(=O)CSCCOc2cc(=O)oc3ccccc23)[C@]2(C)[C@H](C)CC[C@]3(CCC(=O)[C@H]32)[C@@H](C)[C@@H]1O | 0.063 µg/mL (≈ 0.108 µM) | 0.25 µg/mL (≈ 0.429 µM) | 0.031 µg/mL (≈ 0.0532 µM) | 0.25 µg/mL (≈ 0.429 µM) | 0.063 µg/mL (≈ 0.108 µM) | 0.25 µg/mL (≈ 0.429 µM) | 0.125 µg/mL (≈ 0.214 µM) | >4 | >4 | 2 | >4 | >4 | 0.125 µg/mL (≈ 0.214 µM) | 0.125 µg/mL (≈ 0.214 µM) | 0.25 µg/mL (≈ 0.429 µM) | 0.063 µg/mL (≈ 0.108 µM) | 0.125 µg/mL (≈ 0.214 µM) | 0.125 µg/mL (≈ 0.214 µM) | 2 | 2 | Ratio (Staphylococcus aureus [20]): 1; Ratio (Staphylococcus aureus [24]): 2 |
| C=C[C@]1(C)C[C@@H](OC(=O)CSc2cc(=O)oc3cc(C)ccc23)[C@]2(C)[C@H](C)CC[C@]3(CCC(=O)[C@H]32)[C@@H](C)[C@@H]1O | 0.031 µg/mL (≈ 0.0561 µM) | 0.063 µg/mL (≈ 0.114 µM) | 0.016 µg/mL (≈ 0.0289 µM) | 0.063 µg/mL (≈ 0.114 µM) | 0.031 µg/mL (≈ 0.0561 µM) | – | 0.063 µg/mL (≈ 0.114 µM) | 2 | >4 | 2 | 2 | >4 | 0.031 µg/mL (≈ 0.0561 µM) | 0.125 µg/mL (≈ 0.226 µM) | 0.125 µg/mL (≈ 0.226 µM) | 0.063 µg/mL (≈ 0.114 µM) | 0.125 µg/mL (≈ 0.226 µM) | 0.063 µg/mL (≈ 0.114 µM) | – | 2 | Ratio (Staphylococcus aureus [25]): >4; Ratio (Staphylococcus aureus [24]): 4; Ratio (Staphylococcus aureus [23]): 4 |
| C=C[C@]1(C)C[C@@H](OC(=O)CSc2cc(=O)oc3cc(Cl)ccc23)[C@]2(C)[C@H](C)CC[C@]3(CCC(=O)[C@H]32)[C@@H](C)[C@@H]1O | 0.031 µg/mL (≈ 0.0541 µM) | 0.063 µg/mL (≈ 0.11 µM) | 0.031 µg/mL (≈ 0.0541 µM) | 0.063 µg/mL (≈ 0.11 µM) | 0.031 µg/mL (≈ 0.0541 µM) | 0.125 µg/mL (≈ 0.218 µM) | 0.063 µg/mL (≈ 0.11 µM) | 4 | >4 | 2 | 2 | 4 | 0.031 µg/mL (≈ 0.0541 µM) | 0.125 µg/mL (≈ 0.218 µM) | 0.25 µg/mL (≈ 0.436 µM) | 0.125 µg/mL (≈ 0.218 µM) | 0.125 µg/mL (≈ 0.218 µM) | 0.063 µg/mL (≈ 0.11 µM) | 2 | >4 | Ratio (Staphylococcus aureus [25]): >4; Ratio (Staphylococcus aureus [20]): >4; Ratio (Staphylococcus aureus [24]): >4; Ratio (Staphylococcus aureus [23]): >4 |
| C=C[C@]1(C)C[C@@H](OC(=O)CSCCOc2cc(=O)oc3cc(OC)ccc23)[C@]2(C)[C@H](C)CC[C@]3(CCC(=O)[C@H]32)[C@@H](C)[C@@H]1O | 0.063 µg/mL (≈ 0.103 µM) | 0.125 µg/mL (≈ 0.204 µM) | 0.031 µg/mL (≈ 0.0506 µM) | 0.125 µg/mL (≈ 0.204 µM) | 0.063 µg/mL (≈ 0.103 µM) | 0.063 µg/mL (≈ 0.103 µM) | 0.125 µg/mL (≈ 0.204 µM) | >4 | >4 | 2 | >4 | >4 | 0.125 µg/mL (≈ 0.204 µM) | 0.125 µg/mL (≈ 0.204 µM) | 0.125 µg/mL (≈ 0.204 µM) | 0.25 µg/mL (≈ 0.408 µM) | 0.125 µg/mL (≈ 0.204 µM) | 0.125 µg/mL (≈ 0.204 µM) | >1 | >4 | Ratio (Streptococcus pneumoniae [12]): 2; Ratio (Staphylococcus aureus [23]): 4 |
| C=C[C@]1(C)C[C@@H](OC(=O)CSc2cc(=O)oc3ccc([N+](=O)[O-])cc23)[C@]2(C)[C@H](C)CC[C@]3(CCC(=O)[C@H]32)[C@@H](C)[C@@H]1O | 0.031 µg/mL (≈ 0.0531 µM) | 0.063 µg/mL (≈ 0.108 µM) | 0.031 µg/mL (≈ 0.0531 µM) | 0.063 µg/mL (≈ 0.108 µM) | 0.031 µg/mL (≈ 0.0531 µM) | 0.25 µg/mL (≈ 0.428 µM) | 0.125 µg/mL (≈ 0.214 µM) | >4 | >4 | 2 | 2 | >4 | 0.031 µg/mL (≈ 0.0531 µM) | 0.063 µg/mL (≈ 0.108 µM) | 0.063 µg/mL (≈ 0.108 µM) | 0.125 µg/mL (≈ 0.214 µM) | 0.063 µg/mL (≈ 0.108 µM) | 0.125 µg/mL (≈ 0.214 µM) | 2 | 1 | Ratio (Staphylococcus aureus [24]): 4 |
